Like-named read-outs stand apart in the source and are kept apart here.
Columns and labels:
Type in all cases: cell-based
[1] = biological target: T1, EGFR L858R/T790M/C797S (BaF3-LTC cells) (Homo sapiens, UniProt P00533, C797S/L858R/T790M); test: EGFR degradation HTRF assay, BaF3-LTC cells
T1 construct: expressed in transfected cells; host or cells: BaF3
In short: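 EGFR remaining after a 16 h, 37 °C exposure (8 doses, 5-fold steps from 10 uM final, 0.2% DMSO) was quantified by HTRF antibodies in cell lysate. Percent inhibition relative to DMSO control was fitted by four-parameter logistic to give DC50; Dmax denotes maximal degradation.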

[2] = test system: EGFR Del19/T790M/C797S (H1975-clone #28); test: EGFR degradation HTRF assay, H1975-clone #28 DTC cells
In short: (§1)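 Compounds (top 10 uM, 5-fold, 8 points, 0.2% DMSO) incubated 16 h at 37 °C on homozygous clones: #23 Del19/C797S, #28 Del19/T790M/C797S, exogenous EGFR only in H1975. HTRF on lysates quantified remaining EGFR relative to DMSO; four-parameter fit gave DC50 and Dmax.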

[3] = test system: EGFR Del19/C797S (H1975-clone #23); test: EGFR degradation HTRF assay, H1975-clone #23 DC cells; conditions: for H1975 #23 DC Dmax (%): maximum percentage of degradation
In short: as §1

[4] = biological target: T2, EGFR L858R/C797S (BaF3 LC cells) (Homo sapiens, UniProt P00533, C797S/L858R); test: EGFR degradation HTRF assay, BaF3 LC cells
T2 construct: expressed in transfected cells; host or cells: BaF3
T2 sequence (P00533 25-1210 C797S/L858R): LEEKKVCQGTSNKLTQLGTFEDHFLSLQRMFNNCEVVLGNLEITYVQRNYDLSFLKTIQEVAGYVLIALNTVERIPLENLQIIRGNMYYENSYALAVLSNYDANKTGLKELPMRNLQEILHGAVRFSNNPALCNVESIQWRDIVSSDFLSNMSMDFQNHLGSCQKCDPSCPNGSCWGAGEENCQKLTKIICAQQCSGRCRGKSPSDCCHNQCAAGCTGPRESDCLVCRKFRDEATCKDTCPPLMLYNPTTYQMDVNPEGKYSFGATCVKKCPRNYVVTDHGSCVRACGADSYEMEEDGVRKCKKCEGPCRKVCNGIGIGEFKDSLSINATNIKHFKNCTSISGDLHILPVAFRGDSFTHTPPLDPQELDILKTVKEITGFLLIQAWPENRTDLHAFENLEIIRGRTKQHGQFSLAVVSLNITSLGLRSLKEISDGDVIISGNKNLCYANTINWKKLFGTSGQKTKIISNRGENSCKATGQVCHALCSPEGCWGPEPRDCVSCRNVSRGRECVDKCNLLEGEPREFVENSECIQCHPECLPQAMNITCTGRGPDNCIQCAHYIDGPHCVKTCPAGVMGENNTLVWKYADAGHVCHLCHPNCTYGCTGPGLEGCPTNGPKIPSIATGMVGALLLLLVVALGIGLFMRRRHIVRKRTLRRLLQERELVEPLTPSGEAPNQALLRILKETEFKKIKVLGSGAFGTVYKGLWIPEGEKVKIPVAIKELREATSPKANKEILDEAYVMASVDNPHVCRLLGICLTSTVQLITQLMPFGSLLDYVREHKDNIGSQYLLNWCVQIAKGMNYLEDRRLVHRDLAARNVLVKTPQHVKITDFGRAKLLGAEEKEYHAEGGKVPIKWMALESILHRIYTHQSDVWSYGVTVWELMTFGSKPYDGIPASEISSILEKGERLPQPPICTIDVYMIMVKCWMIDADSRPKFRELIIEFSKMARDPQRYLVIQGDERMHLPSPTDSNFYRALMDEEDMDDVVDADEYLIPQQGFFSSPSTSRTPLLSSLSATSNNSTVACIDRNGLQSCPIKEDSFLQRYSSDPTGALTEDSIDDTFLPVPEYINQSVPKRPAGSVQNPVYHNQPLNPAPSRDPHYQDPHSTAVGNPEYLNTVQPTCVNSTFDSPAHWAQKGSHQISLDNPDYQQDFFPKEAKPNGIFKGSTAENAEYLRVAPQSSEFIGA

[5] = BaF3-LTC cells; EGFR degradation, IC50 (DC50) from curve fit; read-out: DC50(nM) BaF3-LTC
[6] = H1975 # 28 DTC cells; EGFR degradation, IC50 (DC50) from curve fit; read-out: DC50(nM) H1975 # 28 DTC
[7] = H1975 # 28 DTC cells; maximum percentage of inhibition (degradation)
[8] = H1975 #23 DC, 16h treatment, read-out: H1975 #23 DC DC50
[9] = BaF3 LC, 16h treatment; read-out: BaF3 LC DC50
[10] = BaF3-LTC cells; maximum percentage of inhibition (degradation); read-out: Dmax (%) BaF3-LTC
[11] = BaF3 LC, 16h treatment, maximum percentage of degradation; read-out: BaF3 LC Dmax (%)

T1 sequence (P00533 25-1210 T790M/C797S/L858R): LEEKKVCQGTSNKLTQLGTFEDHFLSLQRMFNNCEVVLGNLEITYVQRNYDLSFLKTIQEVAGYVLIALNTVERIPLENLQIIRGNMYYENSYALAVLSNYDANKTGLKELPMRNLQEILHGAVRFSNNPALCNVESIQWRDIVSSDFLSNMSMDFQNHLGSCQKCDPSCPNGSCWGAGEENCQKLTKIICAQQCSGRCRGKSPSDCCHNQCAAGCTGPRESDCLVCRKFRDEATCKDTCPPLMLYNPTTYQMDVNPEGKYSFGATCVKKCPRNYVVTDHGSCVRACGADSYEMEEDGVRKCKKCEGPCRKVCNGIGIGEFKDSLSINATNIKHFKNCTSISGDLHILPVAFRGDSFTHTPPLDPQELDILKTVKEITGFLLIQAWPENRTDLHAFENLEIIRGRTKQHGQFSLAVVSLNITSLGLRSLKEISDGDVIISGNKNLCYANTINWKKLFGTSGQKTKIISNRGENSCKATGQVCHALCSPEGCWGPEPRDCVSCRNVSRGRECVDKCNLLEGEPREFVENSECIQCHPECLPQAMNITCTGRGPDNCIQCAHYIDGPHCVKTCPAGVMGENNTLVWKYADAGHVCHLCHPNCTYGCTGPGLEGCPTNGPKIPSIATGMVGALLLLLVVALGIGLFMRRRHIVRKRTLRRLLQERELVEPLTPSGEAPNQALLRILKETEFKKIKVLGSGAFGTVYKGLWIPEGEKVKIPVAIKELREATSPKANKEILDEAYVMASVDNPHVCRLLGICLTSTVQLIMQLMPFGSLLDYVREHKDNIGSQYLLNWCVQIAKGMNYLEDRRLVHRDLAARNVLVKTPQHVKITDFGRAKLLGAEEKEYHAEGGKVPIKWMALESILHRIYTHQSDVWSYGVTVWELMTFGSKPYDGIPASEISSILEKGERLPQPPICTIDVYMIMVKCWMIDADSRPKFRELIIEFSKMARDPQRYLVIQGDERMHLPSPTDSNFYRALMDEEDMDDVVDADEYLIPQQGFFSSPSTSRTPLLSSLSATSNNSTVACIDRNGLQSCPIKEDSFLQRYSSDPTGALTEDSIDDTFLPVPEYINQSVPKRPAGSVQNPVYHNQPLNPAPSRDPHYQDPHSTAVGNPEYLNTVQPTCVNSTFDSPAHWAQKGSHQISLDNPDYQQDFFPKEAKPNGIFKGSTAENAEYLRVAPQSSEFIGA

SMILES	DC50 [1, 5]	DC50 [2, 6]	DC50 [3, 8]	DC50 [4, 9]	Dmax [1, 10]	Dmax [4, 11]	Dmax (%) H1975 # 28 DTC [2, 7]	H1975 #23 DC Dmax (%) ([3]; 16h treatment)	DC50 ([1]; read-out: DC50(nM) BaF3-LTC; BaF3-LTC cells; EGFR degradation, IC50 (DC50) from curve fit)	Dmax ([1]; read-out: Dmax (%) BaF3-LTC, BaF3-LTC cells; maximum percentage of inhibition (degradation))	DC50 ([2]; read-out: DC50(nM) H1975 # 28 DTC; H1975 # 28 DTC cells; EGFR degradation, IC50 (DC50) from curve fit)	DC50 ([3]; read-out: H1975 #23 DC DC50, 16h treatment)	Dmax ([4]; BaF3, read-out: BaF3 LC Dmax (%))	DC50 ([4]; read-out: BaF3 LC DC50; BaF3 LC, 16h treatment)
CCOc1cc(N2CCC(N3CCN(CCc4ccc(F)c5c4oc(=O)n5C4CCC(=O)NC4=O)CC3)CC2)c(CC)cc1Nc1ncc(Br)c(Nc2ccc3nc(CC)ccc3c2P(C)(C)=O)n1 (centres unmarked) [Example 505, 3-(7-(2-(4-(1-(4-((5-bromo-4-((5-(dimethylphosphoryl)-2-ethylquinolin-6-yl)amino)pyrimidin-2-yl)amino)-5-ethoxy-2-ethylphenyl)piperidin-4-yl)piperazin-1-yl)ethyl)-4-fluoro-2-oxobenzo[d]oxazol-3(2H)-yl)piperidine-2,6-dione]	9.43 nM	0.925 nM	3.17 nM	8.88 nM			77.6%	68.68%						
CCOc1cc(N2CCC(N3CCN(CC4CN(c5cccc6c5oc(=O)n6C5CCC(=O)NC5=O)C4)CC3)CC2)c(CC)cc1Nc1ncc(Br)c(Nc2ccc3nc(CC)ccc3c2P(C)(C)=O)n1 (centres unmarked) [Example 497]	6.27 nM	1.01 nM	3.32 nM	5.19 nM	86.6%	93.3%	80.94%	74.87%						
CCOc1cc(N2CCC(N3CCN(CCc4cccc5c4n(CC)c(=O)n5C4CCC(=O)NC4=O)CC3)CC2)c(CC)cc1Nc1ncc(Br)c(Nc2ccc3nc(CC)ccc3c2P(C)(C)=O)n1 (centres unmarked) [Example 504, 3-(4-(2-(4-(1-(4-((5-bromo-4-((5-(dimethylphosphoryl)-2-ethylquinolin-6-yl)amino)pyrimidin-2-yl)amino)-5-ethoxy-2-ethylphenyl)piperidin-4-yl)piperazin-1-yl)ethyl)-3-ethyl-2-oxo-2,3-dihydro-1H-benzo[d]imidazol-1-yl)piperidine-2,6-dione]	6.56 nM	0.962 nM	2.95 nM	12.4 nM			75.99%	78.25%						
CCOc1cc(N2CCC(N3CCN(CCc4cc(F)cc5c4n(C)c(=O)n5C4CCC(=O)NC4=O)CC3)CC2)c(CC)cc1Nc1ncc(Br)c(Nc2ccc3nc(CC)ccc3c2P(C)(C)=O)n1 (centres unmarked) [Example 462, 3-(4-(2-(4-(1-(4-((5-bromo-4-((5-(dimethylphosphoryl)-2-ethylquinolin-6-yl)amino)pyrimidin-2-yl)amino)-5-ethoxy-2-ethylphenyl)piperidin-4-yl)piperazin-1-yl)ethyl)-6-fluoro-3-methyl-2-oxo-2,3-dihydro-1H-benzo[d]imidazol-1-yl)piperidine-2,6-dione]	19.2 nM	1.12 nM	3.19 nM	67.7 nM			78.37%	77.67%						
CCOc1cc(N2CCC(N3CCN(C(=O)C4CCN(c5cccc6c5oc(=O)n6C5CCC(=O)NC5=O)CC4)CC3)CC2)c(CC)cc1Nc1ncc(Br)c(Nc2ccc3nc(CC)ccc3c2P(C)(C)=O)n1 (centres unmarked) [Example 481, 3-(7-(4-(4-(1-(4-((5-bromo-4-((5-(dimethylphosphoryl)-2-ethylquinolin-6-yl)amino)pyrimidin-2-yl)amino)-5-ethoxy-2-ethylphenyl)piperidin-4-yl)piperazine-1-carbonyl)piperidin-1-yl)-2-oxobenzo[d]oxazol-3(2H)-yl)piperidine-2,6-dione]							77.65%	64.14%	5.27 nM	86.5%	2.14 nM	1.06 nM	91.9%	0.871 nM
CCc1cc(Nc2ncc(Br)c(Nc3ccc4nc(C)ccc4c3P(C)(C)=O)n2)c(OC)cc1N1CCC(N2CCN(C(=O)C3CN(c4cccc5c4C(C)(C)C(=O)N5C4CCC(=O)NC4=O)C3)CC2)CC1 (centres unmarked) [Example 507]	4.3 nM	0.5 nM	2.41 nM	8.97 nM	89.8%	94%	68.8%	52.12%						
CCc1cc(Nc2ncc(Br)c(Nc3ccc4c(=O)n(C5CC5)ncc4c3P(C)(C)=O)n2)c(OC)cc1N1CCC(N2CCN(CCc3cc(F)c(C4CCC(=O)NC4=O)c(F)c3)CC2)CC1 (centres unmarked) [Example 521, 3-(4-(2-(4-(1-(4-((5-bromo-4-((2-cyclopropyl-5-(dimethylphosphoryl)-1-oxo-1,2-dihydrophthalazin-6-yl)amino)pyrimidin-2-yl)amino)-2-ethyl-5-methoxyphenyl)piperidin-4-yl)piperazin-1-yl)ethyl)-2,6-difluorophenyl)piperidine-2,6-dione]	17 nM	1.01 nM	5.9 nM	51.6 nM	87.4%	74.6%	80.24%	75.56%						
CCOc1cc(N2CCC(N3CCN(CCc4cc5oc(=O)n(C6CCC(=O)NC6=O)c5cc4F)CC3)CC2)c(CC)cc1Nc1ncc(Br)c(Nc2cc(F)c3nc(CC)ccc3c2P(C)(C)=O)n1 (centres unmarked) [Example 498, 3-(6-(2-(4-(1-(4-((5-bromo-4-((5-(dimethylphosphoryl)-2-ethyl-8-fluoroquinolin-6-yl)amino)pyrimidin-2-yl)amino)-5-ethoxy-2-ethylphenyl)piperidin-4-yl)piperazin-1-yl)ethyl)-5-fluoro-2-oxobenzo[d]oxazol-3(2H)-yl)piperidine-2,6-dione]	7.62 nM	2.1 nM	0.377 nM	0.718 nM	91.4%	92.9%	86.84%	66.76%						

Continued, in another order:

DC50 [1, 5]	DC50 [2, 6]	DC50 [3, 8]	DC50 [4, 9]	Dmax [1, 10]	Dmax [4, 11]	SMILES	Dmax (%) H1975 # 28 DTC [2, 7]	H1975 #23 DC Dmax (%) ([3]; 16h treatment)	DC50 ([1]; read-out: DC50(nM) BaF3-LTC; BaF3-LTC cells; EGFR degradation, IC50 (DC50) from curve fit)	Dmax ([1]; read-out: Dmax (%) BaF3-LTC, BaF3-LTC cells; maximum percentage of inhibition (degradation))	DC50 ([2]; read-out: DC50(nM) H1975 # 28 DTC; H1975 # 28 DTC cells; EGFR degradation, IC50 (DC50) from curve fit)	DC50 ([3]; read-out: H1975 #23 DC DC50, 16h treatment)	Dmax ([4]; BaF3, read-out: BaF3 LC Dmax (%))	DC50 ([4]; read-out: BaF3 LC DC50; BaF3 LC, 16h treatment)
3.34 nM	0.26 nM	0.951 nM	6.88 nM	92.6%	85.5%	CCOc1cc(N2CCC(N3CCN(CCc4ccc5c(c4)oc(=O)n5C4CCC(=O)NC4=O)CC3)CC2)c(CC)cc1Nc1ncc(Br)c(Nc2ccc3nc(CC)ccc3c2P(C)(C)=O)n1 (centres unmarked) [Example 463, 3-(6-(2-(4-(1-(4-((5-bromo-4-((5-(dimethylphosphoryl)-2-ethylquinolin-6-yl)amino)pyrimidin-2-yl)amino)-5-ethoxy-2-ethylphenyl)piperidin-4-yl)piperazin-1-yl)ethyl)-2-oxobenzo[d]oxazol-3(2H)-yl)piperidine-2,6-dione]	82.73%	56.75%						
2.49 nM	0.712 nM	0.828 nM	1.23 nM	90.7%	93.3%	CCOc1cc(N2CCC(N3CCN(CCc4cc5oc(=O)n(C6CCC(=O)NC6=O)c5cc4C)CC3)CC2)c(CC)cc1Nc1ncc(Br)c(Nc2cc(F)c3nc(CC)ccc3c2P(C)(C)=O)n1 (centres unmarked) [Example 553, 3-(6-(2-(4-(1-(4-((5-bromo-4-((5-(dimethylphosphoryl)-2-ethyl-8-fluoroquinolin-6-yl)amino)pyrimidin-2-yl)amino)-5-ethoxy-2-ethylphenyl)piperidin-4-yl)piperazin-1-yl)ethyl)-5-methyl-2-oxobenzo[d]oxazol-3(2H)-yl)piperidine-2,6-dione]	61.54%	53.56%						
3.49 nM	0.946 nM	3.05 nM	13.2 nM			CCOc1cc(N2CCC(N3CCN(CCc4cccc5c4C4(CC4)C(=O)N5C4CCC(=O)NC4=O)CC3)CC2)c(CC)cc1Nc1ncc(Br)c(Nc2ccc3nc(CC)ccc3c2P(C)(C)=O)n1 (centres unmarked) [Example 571, 3-(4′-(2-(4-(1-(4-((5-bromo-4-((5-(dimethylphosphoryl)-2-ethylquinolin-6-yl)amino)pyrimidin-2-yl)amino)-5-ethoxy-2-ethylphenyl)piperidin-4-yl)piperazin-1-yl)ethyl)-2′-oxospiro[cyclopropane-1,3′-indolin]-1′-yl)piperidine-2,6-dione]	77.08%	75.83%						
2.71 nM	0.588 nM	11.2 nM	24.3 nM			CCOc1cc(N2CCC(N3CCN(CCc4cccc5c4oc(=O)n5C4CCC(=O)NC4=O)CC3)CC2)c(CC)cc1Nc1ncc(Br)c(Nc2cc(F)c3nc(CC)ccc3c2P(C)(C)=O)n1 (centres unmarked) [Example 493, 3-(7-(2-(4-(1-(4-((5-bromo-4-((5-(dimethylphosphoryl)-2-ethyl-8-fluoroquinolin-6-yl)amino)pyrimidin-2-yl)amino)-5-ethoxy-2-ethylphenyl)piperidin-4-yl)piperazin-1-yl)ethyl)-2-oxobenzo[d]oxazol-3 (2H)-yl)piperidine-2,6-dione]	70.43%	63.11%						
